The source of these data is patent US7579504B2, “ABCA1 elevating compounds” (Gilead Sciences, Inc., priority 2005, dated 2009).

For one assay, the system named is ABCA1 mRNA. Put plainly: ABCA1 mRNA induction in THP-1 cells, QuantiGene branched DNA assay. The format is cell-based. The note with it: 10 μM, 18-20 hours. On the procedure: Modulation of expression of ABCA1 mRNA levels by the compounds of the invention was determined in the following assays.
Induction of ABC1 in THP-1 cells, was measured using QuantiGene® branched DNA assay as per manufacturer's instructions. Cultures of THP-1 were grown to subconfluence in DMEM/10% FBS before replacement with DMEM/BSA and 10 and 3 μM concentrations of the test compounds in DMSO for 18-20 hours. After treatment of cells with compounds, the cells were lysed with lysis buffer at 37° C. for 20 minutes. The cell lysate and ABCA1 specific probe (Genospectra, Inc., Fremont, Calif.) mix were added to the 96 well capture plate and hybridized at 53° C. for 16-18 hours. The signal was amplified using the amplifier and label probes provided with the QuantiGene® assay followed by addition of a luminescent alkaline phosphatase substrate, dioxitane. Luminescence was quantified in Victor V plate reader.
Step 1 • Cells are lysed to release mRNA in the presence of target probes. Target mRNA from lysed cells was then captured by hybridization and transferred to the Capture Plate.
Step 2 • Signal amplification was performed by hybridization of the bDNA Amplifier and Label Probe.
Step 3 • Addition of chemiluminescence substrate yielded a QuantiGene® signal proportional to the amount of mRNA present in the sample.
Table 1 presents the relative fold increase in ABCA1 expression over DMSO for compounds of the invention when tested at a concentration of 10 μM.
As to “{4-[({[4-(methylethyl)phenyl]sulfonyl}benzylamino)methyl]cyclohexyl}-N-[(4-methylphenyl)methyl]carboxamide [Compound 28]”, the “ABCA1 Induction Fold Increase over DMSO Vehicle” value was found to be 2.7 fold.
The same measure, in the same setting: the same measure for “N-[(4-methylphenyl)methyl](4-{[(naphthylsulfonyl)benzylamino]methyl}cyclohexyl)carboxamide [Compound 38]”: 5.0 fold.

Staying with this assay, now noted: Homo sapiens, 18-20 hours, read-out: ABCA1 Induction Fold Increase over DMSO Vehicle.
Regarding `Cc1ccc(CNC(=O)C2CCC(CN(Cc3ccccc3)S(=O)(=O)c3cc(F)ccc3C)CC2)cc1` (centres unmarked) [Compound 26, [4-({[(5-fluoro-2-methylphenyl)sulfonyl]benzylamino}methyl)cyclohexyl]-N-[(4-methylphenyl)methyl]carboxamide], the fold induction at 10 µM amounted to 4.3.
The same measure, in the same setting: the same measure for `Cc1ccc(CNC(=O)C2CCC(CN(Cc3ccc(F)cc3)S(=O)(=O)c3ccccc3)CC2)cc1` (centres unmarked) [Compound 3, [4-({[(4-fluorophenyl)methyl](phenylsulfonyl)amino}methyl)cyclohexyl]-N-[(4-methylphenyl)methyl]carboxamide]: 4.8; for `Cc1ccc(CNC(=O)C2CCC(CN(Cc3ccccc3)S(=O)(=O)c3ccccc3F)CC2)cc1` (centres unmarked) [Compound 21, [4-({[(2-fluorophenyl)sulfonyl]benzylamino}methyl)cyclohexyl]-N-[(4-methylphenyl)methyl]carboxamide]: 4.4.
As to `Cc1ccc(CNC(=O)C2CCC(CN([C@H](C)c3ccccc3)S(=O)(=O)c3ccccc3)CC2)cc1` (stereo partly drawn) [Compound 5, (4-{[((1R)-1-phenylethyl)(phenylsulfonyl)amino]methyl}cyclohexyl)-N-[(4-methylphenyl)methyl]carboxamide], the fold induction at 10 µM was found to be 6.4.
Still for that read-out and setting: the same measure for `Cc1ccc(CNC(=O)C2CCC(CN(Cc3ccccc3)S(=O)(=O)c3ccc(Cl)cc3Cl)CC2)cc1` (centres unmarked) [Compound 14, [4-({[(2,4-dichlorophenyl)sulfonyl]benzylamino}methyl)cyclohexyl]-N-[(4-methylphenyl)methyl]carboxamide]: 3.5.
The same measure, in the same setting: the same measure for `Cc1ccc(CNC(=O)C2CCC(CN(Cc3ccccc3)S(=O)(=O)c3ccc(F)cc3F)CC2)cc1` (centres unmarked) [Compound 10, [4-({[(2,4-difluorophenyl)sulfonyl]benzylamino}methyl)cyclohexyl]-N-[(4-methylphenyl)methyl]carboxamide]: 2.2; for `Cc1ccc(CNC(=O)C2CCC(CN(Cc3ccccc3)S(=O)(=O)c3ccc(-c4ccccc4)cc3)CC2)cc1` (centres unmarked) [Compound 48, N-[(4-methylphenyl)methyl][4-({benzyl[(4-phenylphenyl)sulfonyl]amino}methyl)cyclohexyl]carboxamide]: 2.9.
The same measure, in the same setting: the same measure for `Cc1ccc(CNC(=O)C2CCC(CN(Cc3ccccc3)S(=O)(=O)c3cccc(C(F)(F)F)c3)CC2)cc1` (centres unmarked) [Compound 36, N-[(4-methylphenyl)methyl]{4-[(benzyl{[3-(trifluoromethyl)phenyl]sulfonyl}amino)methyl]cyclohexyl}carboxamide]: 2.7.
As for `Cc1ccc(CNC(=O)[C@H]2CC[C@H](CN(Cc3ccccc3C)S(=O)(=O)c3ccccc3)CC2)cc1` [Compound 1, N-[(4-methylphenyl)methyl][4-({[(2-methylphenyl)methyl](phenylsulfonyl)amino}methyl)cyclohexyl]carboxamide], the fold induction at 10 µM came to 4.2.
As to `Cc1ccc(CNC(=O)C2CCC(CN(Cc3ccccc3)S(=O)(=O)c3cc(Cl)ccc3Cl)CC2)cc1` (centres unmarked) [Compound 27, [4-({[(2,5-dichlorophenyl)sulfonyl]benzylamino}methyl)cyclohexyl]-N-[(4-methylphenyl)methyl]carboxamide], the fold induction at 10 µM came out at 3.7.
Still for that read-out and setting: the same measure for `Cc1ccc(CNC(=O)C2CCC(CN(Cc3ccccc3)S(=O)(=O)c3ccccc3C(F)(F)F)CC2)cc1` (centres unmarked) [Compound 35, N-[(4-methylphenyl)methyl]{4-[(benzyl{[2-(trifluoromethyl)phenyl]sulfonyl}amino)methyl]cyclohexyl}carboxamide]: 6.1.
With `Cc1ccc(CNC(=O)C2CCC(CN(Cc3ccccc3)S(=O)(=O)c3ccc(Cl)c(Cl)c3)CC2)cc1` (centres unmarked) [Compound 42, [4-({[(3,4-dichlorophenyl)sulfonyl]benzylamino}methyl)cyclohexyl]-N-[(4-methylphenyl)methyl]carboxamide], the fold induction at 10 µM stood at 2.6.
The same measure, in the same setting: the same measure for `COc1ccc(S(=O)(=O)N(Cc2ccccc2)CC2CCC(C(=O)NCc3ccc(C)cc3)CC2)cc1OC` (centres unmarked) [Compound 18, [4-({[(3,4-dimethoxyphenyl)sulfonyl]benzylamino}methyl)cyclohexyl]-N-[(4-methylphenyl)methyl]carboxamide]: 1.6; for `Cc1ccc(CNC(=O)C2CCC(CN(Cc3ccccc3)S(=O)(=O)c3c(C)nn(C)c3C)CC2)cc1` (centres unmarked) [Compound 47, N-[(4-methylphenyl)methyl][4-({benzyl[(1,3,5-trimethylpyrazol-4-yl)sulfonyl]amino}methyl)cyclohexyl]carboxamide]: 3.5.
Still for that read-out and setting: the same measure for `COc1cccc(S(=O)(=O)N(Cc2ccccc2)CC2CCC(C(=O)NCc3ccc(C)cc3)CC2)c1` (centres unmarked) [Compound 7, [4-({[(3-methoxyphenyl)sulfonyl]benzylamino}methyl)cyclohexyl]-N-[(4-methylphenyl)methyl]carboxamide]: 5.4; for `Cc1ccc(CNC(=O)C2CCC(CN(Cc3ccccc3)S(=O)(=O)c3cccc(Cl)c3)CC2)cc1` (centres unmarked) [Compound 20, [4-({[(3-chlorophenyl)sulfonyl]benzylamino}methyl)cyclohexyl]-N-[(4-methylphenyl)methyl]carboxamide]: 4.3; for `Cc1ccc(CNC(=O)C2CCC(CN(Cc3ccccc3)S(=O)(=O)c3ccc(Cl)cc3F)CC2)cc1` (centres unmarked) [Compound 11, [4-({[(4-chloro-2-fluorophenyl)sulfonyl]benzylamino}methyl)cyclohexyl]-N-[(4-methylphenyl)methyl]carboxamide]: 1.9.
The same measure, in the same setting: the same measure for `Cc1ccc(CNC(=O)C2CCC(CN(Cc3ccccc3)S(=O)(=O)c3cc(C(F)(F)F)cc(C(F)(F)F)c3)CC2)cc1` (centres unmarked) [Compound 24, {4-[({[3,5-bis(trifluoromethyl)phenyl]sulfonyl}benzylamino)methyl]cyclohexyl}-N-[(4-methylphenyl)methyl]carboxamide]: 0.9; for `Cc1ccc(CNC(=O)C2CCC(CN(Cc3ccccc3)S(=O)(=O)c3ccc(F)c(F)c3F)CC2)cc1` (centres unmarked) [Compound 16, N-[(4-methylphenyl)methyl][4-({benzyl[(2,3,4-trifluorophenyl)sulfonyl]amino}methyl)cyclohexyl]carboxamide]: 1.9; for `Cc1ccc(CNC(=O)C2CCC(CN(Cc3ccccc3)S(=O)(=O)c3ccccc3Cl)CC2)cc1` (centres unmarked) [Compound 22, [4-({[(2-chlorophenyl)sulfonyl]benzylamino}methyl)cyclohexyl]-N-[(4-methylphenyl)methyl]carboxamide]: 4.1.
Regarding `Cc1ccc(CNC(=O)C2CCC(CN(Cc3ccccc3)S(=O)(=O)c3ccc4ccccc4c3)CC2)cc1` (centres unmarked) [Compound 41, N-[(4-methylphenyl)methyl](4-{[(2-naphthylsulfonyl)benzylamino]methyl}cyclohexyl)carboxamide], the fold induction at 10 µM was 5.2.
Still for that read-out and setting: the same measure for `CC(=O)Nc1nc(C)c(S(=O)(=O)N(Cc2ccccc2)CC2CCC(C(=O)NCc3ccc(C)cc3)CC2)s1` (centres unmarked) [Compound 30, N-[4-methyl-5-({[(4-{N-[(4-methylphenyl)methyl]carbamoyl}cyclohexyl)methyl]benzylamino}sulfonyl)-1,3-thiazol-2-yl]acetamide]: 3.9; for `Cc1ccc(CNC(=O)C2CCC(CN(Cc3ccccc3)S(=O)(=O)c3ccc(C)c(Cl)c3)CC2)cc1` (centres unmarked) [Compound 25, [4-({[(3-chloro-4-methylphenyl)sulfonyl]benzylamino}methyl)cyclohexyl]-N-[(4-methylphenyl)methyl]carboxamide]: 3.5; for `CC(=O)Nc1ccc(S(=O)(=O)N(Cc2ccccc2)CC2CCC(C(=O)NCc3ccc(C)cc3)CC2)cc1` (centres unmarked) [Compound 8, N-[4-({[(4-{N-[(4-methylphenyl)methyl]carbamoyl}cyclohexyl)methyl]benzylamino}sulfonyl)phenyl]acetamide]: 3.1.
Same read-out and setting: the same measure for `Cc1ccc(CNC(=O)C2CCC(CN(Cc3ccccc3)S(=O)(=O)c3cccc(Cl)c3F)CC2)cc1` (centres unmarked) [Compound 46, [4-({[(3-chloro-2-fluorophenyl)sulfonyl]benzylamino}methyl)cyclohexyl]-N-[(4-methylphenyl)methyl]carboxamide]: 4.5; for `Cc1ccc(CNC(=O)C2CCC(CN(Cc3ccccc3)S(=O)(=O)c3cc(C)cc(C)c3)CC2)cc1` (centres unmarked) [Compound 23, [4-({[(3,5-dimethylphenyl)sulfonyl]benzylamino}methyl)cyclohexyl]-N-[(4-methylphenyl)methyl]carboxamide]: 4.1; for `Cc1ccc(CNC(=O)C2CCC(CN(Cc3ccccc3)S(=O)(=O)c3cccc(F)c3)CC2)cc1` (centres unmarked) [Compound 31, [4-({[(3-fluorophenyl)sulfonyl]benzylamino}methyl)cyclohexyl]-N-[(4-methylphenyl)methyl]carboxamide]: 6.7.
